# Source: US10874743B2, “IRAK degraders and uses thereof” (Kymera Therapeutics, Inc., priority 2017, dated 2020)
# Target: T1, IRAK4 (Homo sapiens, UniProt Q9NWZ3)
# T1 sequence (Q9NWZ3 1-460): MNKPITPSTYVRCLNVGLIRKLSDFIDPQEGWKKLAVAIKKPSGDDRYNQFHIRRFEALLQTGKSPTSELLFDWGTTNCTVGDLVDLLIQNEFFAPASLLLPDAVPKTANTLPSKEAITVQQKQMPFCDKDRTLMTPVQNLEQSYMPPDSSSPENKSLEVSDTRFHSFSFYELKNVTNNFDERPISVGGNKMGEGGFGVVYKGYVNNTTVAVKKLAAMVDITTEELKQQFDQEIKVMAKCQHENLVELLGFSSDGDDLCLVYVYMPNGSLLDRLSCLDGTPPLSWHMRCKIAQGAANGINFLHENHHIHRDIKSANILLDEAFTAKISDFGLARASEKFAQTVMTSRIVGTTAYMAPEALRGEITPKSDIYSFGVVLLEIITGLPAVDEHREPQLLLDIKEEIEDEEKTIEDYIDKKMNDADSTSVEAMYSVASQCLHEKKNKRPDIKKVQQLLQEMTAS
# Assay: OCI-LY-10 degradation assay (western blot, % IRAK4 degraded after 4 hours)
# Assay type: cell-based
# Set-up: endogenous in cells; host or cells: OCI-LY10
# Conditions: OCI-LY10 cells, IRAK4 degraded after 4 hours, western blot
# Method in brief: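 OCI-LY10 cells (RPMI-1640, 20% FBS, 55 μM 2-ME) treated with compound at 0.003-10 μM final for 4 h at 37° C, then lysed in RIPA buffer. IRAK4 level read by fluorescent western blot (20-25 μg protein) and binned as % degraded: A >50%, B >20-50%, C <20%.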
row,Structure (SMILES),OCI-LY10 % IRAK4 Degradation
1,CC(C)(OCCOCCNCCOCCNc1cccc2c1C(=O)N(C1CCC(=O)NC1=O)C2=O)C(F)CNC(=O)c1cnc(-n2ncc3cc(C#N)cnc32)cc1NC1CC1 (stereo not drawn) [I-131],C (<20% degradation)
2,NC(=O)c1nn(-c2cccc(C(=O)NCCOCCOCCOCCOCCNc3cccc4c3C(=O)N(C3CCC(=O)NC3=O)C4=O)c2)cc1NC(=O)c1coc(-c2ccnc(NCC(F)(F)F)c2)n1 (stereo not drawn) [I-136],B (>20-50% degradation)
3,NC(=O)c1nn(-c2ccc(C(=O)NCCOCCOCCNc3cccc4c3C(=O)N(C3CCC(=O)NC3=O)C4=O)cc2)cc1NC(=O)c1cccc(-c2ccnc(NCC(F)(F)F)c2)n1 (stereo not drawn) [I-137],B (>20-50% degradation)
4,NC(=O)c1nn(-c2ccc(C(=O)NCCOCCOCCNc3cccc4c3C(=O)N(C3CCC(=O)NC3=O)C4=O)cc2)cc1NC(=O)c1coc(-c2ccnc(NCC3CC3)c2)n1 (stereo not drawn) [I-138],A (>50% degradation)
5,NC(=O)c1nn(C2CCC(C(=O)NCCOCCOCCNc3cccc4c3C(=O)N(C3CCC(=O)NC3=O)C4=O)CC2)cc1NC(=O)c1coc(-c2ccnc(NCC(F)(F)F)c2)n1 (stereo not drawn) [I-139],B (>20-50% degradation)
6,NC(=O)c1nn(-c2ccc(C(=O)NCCOCCOCCNc3cccc4c3C(=O)N(C3CCC(=O)NC3=O)C4=O)cc2)cc1NC(=O)c1coc(-c2ccncc2)n1 (stereo not drawn) [I-140],B (>20-50% degradation)
7,N[C@@H]1CCCC[C@@H]1Nc1ccn2nc(-c3cn(-c4ccc(C(=O)NCCOCCOCCNc5cccc6c5C(=O)N(C5CCC(=O)NC5=O)C6=O)cc4)nc3C(F)F)cc2n1 (stereo partly drawn) [I-142],B (>20-50% degradation)
8,NC(=O)c1nn(-c2ccc(C(=O)NCCOCCOCCNc3cccc4c3C(=O)N(C3CCC(=O)NC3=O)C4=O)nc2)cc1NC(=O)c1coc(-c2ccnc(NCC(F)(F)F)c2)n1 (stereo not drawn) [I-143],B (>20-50% degradation)
9,NC(=O)c1nn(-c2ccc(C(=O)NCCOCCOCCCc3cccc4c3C(=O)N(C3CCC(=O)NC3=O)C4=O)cc2)cc1NC(=O)c1coc(-c2ccnc(NCC(F)(F)F)c2)n1 (stereo not drawn) [I-147],A (>50% degradation)
10,NC(=O)c1nn(-c2ccc(C(=O)NCCOCCOCCOCCOCCCc3ccc4c(c3)C(=O)N(C3CCC(=O)NC3=O)C4=O)cc2)cc1NC(=O)c1coc(-c2ccnc(NCC(F)(F)F)c2)n1 (stereo not drawn) [I-148],B (>20-50% degradation)
11,NC(=O)c1nn(-c2ccc(C(=O)NCCOCCOCCOCCOCC#Cc3ccc4c(c3)C(=O)N(C3CCC(=O)NC3=O)C4=O)cc2)cc1NC(=O)c1coc(-c2ccnc(NCC(F)(F)F)c2)n1 (stereo not drawn) [I-149],A (>50% degradation)
12,NC(=O)c1nn(-c2ccc(C(=O)NCC3CN(CCOCCNc4cccc5c4C(=O)N(C4CCC(=O)NC4=O)C5=O)CCO3)cc2)cc1NC(=O)c1coc(-c2ccnc(NCC(F)(F)F)c2)n1 (stereo not drawn) [I-151],A (>50% degradation)
13,NC(=O)[C@@H](O)C[C@H]1CCc2sc3ncnc(O[C@H]4CC[C@H](N5CCN(C(=O)COCCNc6cccc7c6C(=O)N(C6CCC(=O)NC6=O)C7=O)CC5)CC4)c3c21 (stereo partly drawn) [I-153],C (<20% degradation)
14,"NC(=O)[C@@H](O)C[C@H]1CCc2sc3ncnc(OC4CCC(N5CCN(C(=O)COCCOCCNc6cccc7c6C(=O)N(C6CCC(=O)NC6=O)C7=O)CC5)CC4)c3c21 (stereo partly drawn) [I-160, (2S)-3-[(8R)-1-[4-[4-[2-[2-[2-[[2-(2,6-dioxo-3-piperidyl)-1,3-dioxo-isoindolin-4-yl]amino]ethoxy]ethoxy]acetyl]piperazin-1-yl]cyclohexoxyl-7,8-dihydro-6H-cyclopenta[4,5]thieno 1,2-c]pyrimidin-8-yl]-2-hydroxy-propanamide]",C (<20% degradation)
15,"NC(=O)[C@@H](O)C[C@H]1CCc2sc3ncnc(OC4CCC(N5CCN(C(=O)COCCOCCOCCOCCNc6cccc7c6C(=O)N(C6CCC(=O)NC6=O)C7=O)CC5)CC4)c3c21 (stereo partly drawn) [I-161, (2S)-3-[(8R)-1-[4-[4-[2-[2-[2-[2-[2-[[2-(2,6-dioxo-3-piperidyl)-1,3-dioxo-isoindolin-4-yl]amino]ethoxy]ethoxy]ethoxy]ethoxy]acetyl]piperazin-1-yl]cyclohexoxy]-7,8-dihydro-6H-cyclopenta[4,5]thieno[1,2-c]pyrimidin-8-yl]-2-hydroxy-propanamide]",C (<20% degradation)
16,"NC(=O)c1nn(C2CN(CCOCCOCCOCCNc3cccc4c3C(=O)N(C3CCC(=O)NC3=O)C4=O)C2)cc1NC(=O)c1coc(-c2ccnc(NCC(F)(F)F)c2)n1 (stereo not drawn) [I-169, N-[3-carbamoyl-1-[1-[2-[2-[2-[2-[[2-(2,6-dioxo-3-piperidyl)-1,3-dioxo-isoindolin-4-yl]amino]ethoxy]ethoxy]ethoxy]ethyl]azetidin-3-yl]pyrazol-4-yl]-2-[2-(2,2,2-trifluoroethylamino)-4-pyridyl]oxazole-4-carboxamide]",C (<20% degradation)
17,"NC(=O)c1nn(C2CCN(CCOCCOCCOCCNc3cccc4c3C(=O)N(C3CCC(=O)NC3=O)C4=O)CC2)cc1NC(=O)c1coc(-c2ccnc(NCC(F)(F)F)c2)n1 (stereo not drawn) [I-170, N-[3-carbamoyl-1-[1-[2-[2-[2-[2-[[2-(2,6-dioxo-3-piperidyl)-1,3-dioxo-isoindolin-4-yl]amino]ethoxy]ethoxy]ethoxy]ethyl]-4-piperidyl]pyrazol-4-yl]-2-[2-(2,2,2-trifluoroethylamino)-4-pyridyl]oxazole-4-carboxamide]",B (>20-50% degradation)
18,"N#Cc1cnc2c(cnn2-c2cc(NC3CC3)c(C(=O)NCC(F)COc3cccc4c3C(=O)N(C3CCC(=O)NC3=O)C4=O)cn2)c1 (stereo not drawn) [I-173, 6-(5-Cyanopyrazolo[3,4-b]pyridin-1-yl)-4-(cyclopropylamino)-N-[3-[2-(2,6-dioxo-3-piperidyl)-1,3-dioxo-isoindolin-4-yl]oxy-2-fluoro-propyl]pyridine-3-carboxamide]",C (<20% degradation)
19,"O=C1CCC(N2C(=O)c3cccc(OCC(F)CNC(=O)c4cnc(Nc5ccc6cnccc6n5)cc4NC4CC4)c3C2=O)C(=O)N1 (stereo not drawn) [I-174, 4-(Cyclopropylamino)-N-[3-[2-(2,6-dioxo-3-piperidyl)-1,3-dioxo-isoindolin-4-yl]oxy-2-fluoro-propyl]-6-(1,6-naphthyridin-2-ylamino)pyridine-3-carboxamide]",C (<20% degradation)
20,"N#Cc1cnc2c(cnn2-c2cc(NC3CC3)c(-c3cn(CCOCCOCCOCCNc4cccc5c4C(=O)N(C4CCC(=O)NC4=O)C5=O)nn3)cn2)c1 (stereo not drawn) [I-175, 1-[4-(cyclopropylamino)-5-[1-[2-[2-[2-[2-[[2-(2,6-dioxo-3-piperidyl)-1,3-dioxo-isoindolin-4-yl]amino]ethoxy]ethoxy]ethoxy]ethyl]triazol-4-yl]-2-pyridyl]pyrazolo[3,4-b]pyridine-5-carbonitrile]",C (<20% degradation)
21,"N#Cc1cnc2c(cnn2-c2cc(NC3CC3)c(-c3cn(CCOCCOCCOCCOCCOCCNc4cccc5c4C(=O)N(C4CCC(=O)NC4=O)C5=O)nn3)cn2)c1 (stereo not drawn) [I-176, 1-[4-(Cyclopropylamino)-5-[1-[2-[2-[2-[2-[2-[2-[[2-(2,6-dioxo-3-piperidyl)-1,3-dioxo-isoindolin-4-yl]amino]ethoxy]ethoxy]ethoxy]ethoxy]ethoxy]ethyl]triazol-4-yl]-2-pyridyl]pyrazolo[3,4-b]pyridine-5-carbonitrile]",C (<20% degradation)
22,"NC(=O)c1nn(-c2ccc(C(=O)NCC#CC#CCNc3cccc4c3C(=O)N(C3CCC(=O)NC3=O)C4=O)cc2)cc1NC(=O)c1coc(-c2ccnc(NCC(F)(F)F)c2)n1 (stereo not drawn) [I-177, N-[3-carbamoyl-1-[4-[6-[[2-(2,6-dioxo-3-piperidyl)-1,3-dioxo-isoindolin-4-yl]amino]hexa-2,4-diynylcarbamoyl]phenyl]pyrazol-4-yl]-2-[2-(2,2,2-trifluoroethylamino)-4-pyridyl]oxazole-4-carboxamide]",C (<20% degradation)
23,"NC(=O)c1nn(-c2ccc(C(=O)NCC#CC#CCCNc3cccc4c3C(=O)N(C3CCC(=O)NC3=O)C4=O)cc2)cc1NC(=O)c1coc(-c2ccnc(NCC(F)(F)F)c2)n1 (stereo not drawn) [I-178, N-[3-carbamoyl-1-[4-[7-[[2-(2,6-dioxo-3-piperidyl)-1,3-dioxo-isoindolin-4-yl]amino]hepta-2,4-diynylcarbamoyl]phenyl]pyrazol-4-yl]-2-[2-(2,2,2-trifluoroethylamino)-4-pyridyl]oxazole-4-carboxamide]",C (<20% degradation)
24,"NC(=O)[C@@H](O)C[C@H]1CCc2sc3ncnc(O[C@H]4CC[C@H](N5CCN(CCOCCNc6cccc7c6C(=O)N(C6CCC(=O)NC6=O)C7=O)CC5)CC4)c3c21 (stereo partly drawn) [I-184, T(2R)-3-[(8R)-1-[4-[4-[2-[2-[[2-(2,6-dioxo-3-piperidyl)-1,3-dioxo-isoindolin-4-yl]amino]V ethoxy]ethyl]piperazin-1-yl]cyclohexoxy]-7,8-dihydro-6H-cyclopenta[4,5]thieno[1,2-c]pyrimidin-8-yl]-2-hydroxy-propanamide]",C (<20% degradation)
